Legend:
Mcl-1 protein = molecular target: T1, Mcl-1 protein (Homo sapiens, UniProt Q07820); assay: TR-FRET binding assay with Bid-Dy647 peptide; details: 10 nM Mcl-1, 10 nM Bid-Dy647
T1 construct: human Mcl-1 (residues 171–323); His tag (pHis-TEV vector) (N, cleaved yes); made in house; host or cells: E. coli BL21 (DE3)
Experimental: TR-FRET was performed using black 384-well plates in an Envision Multilabel plate reader (Perkin Elmer Life Sciences). To each well, a mixture of 10 nM Bid-Dy647 peptide (79–99), 10 nM Mcl-1 protein, and Europium-anti-His antibody were added to a final volume of 25 μl in the assay buffer (20 mM potassium phosphate, pH 7.5; 50 mM NaCl, 1 mM EDTA and 0.05% Pluronic F68). The TR-FRET signals were measured with an Envision Multilabel plate reader after 2 h of incubation. (Ex 340 nm, Em615 nm and Em665 nm) and expressed as FRET signal ratio (F665 nm/[…] * 104)

Bcl-2 = molecular target: T2, Bcl-2 (Homo sapiens, UniProt P10415, DEL35-91/INS34DVEENRTEAPEGTESE); assay: FP-based competitive binding assay with FAM-Bid; details: FP
T2 construct: His tag (pHis-TEV vector) (N, cleaved yes); made in house; host or cells: E. coli BL21 (DE3)
T2 sequence (P10415 with tags, fused parts or gaps INS34DVEEN/V35R/G36T/A37E/P40E/DEL42-87/P88T/V89E/P90S/P91E): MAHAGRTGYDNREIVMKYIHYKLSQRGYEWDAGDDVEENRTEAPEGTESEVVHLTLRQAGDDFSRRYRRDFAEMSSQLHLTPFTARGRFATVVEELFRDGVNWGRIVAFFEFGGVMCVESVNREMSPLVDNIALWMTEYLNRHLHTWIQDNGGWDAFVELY
Experimental: (§1) FP-based binding assays were developed and optimized to determine the binding affinities of inhibitors to the recombinant Mcl-1, Bcl-2, Bcl-xL, and Bfl-1, proteins. […] The fluorescent Bid probe was fixed at 2 nM for all assays, except for Bfl-1, where 1 nM was used. 5 μL of the tested compound in DMSO and 120 μL of protein/probe complex in the assay buffer were added to assay plates (Corning #3792), incubated at room temperature for 3 h, and the polarization values (mP) were measured at an excitation wavelength of 485 nm and an emission wavelength of 530 nm using the plate reader Synergy H1 Hybrid, BioTek. IC50 values were determined by nonlinear regression fitting of the competition curves (GraphPad Prism 6.0 Software). The Ki values were calculated as described previously.
(§2) 1. List of compounds purchased from vendors
(§3) Compound s 5, 6, 7, 8 and S3, S4, S5, S6 S7, S8, S9, S10, S17 were purchased from […]
(§4) Compound s 9, 10, 11 and S11, S12, S13 were purchased from I nterbioscreen […]
(§5) His-tagged proteins containing human Mcl-1 (residues 171–323), the isoform 2 construct of the human Bcl-2 [Bcl2-2 construct for protein production starts with the Bcl2 sequence of 1-34 a a, followed by the Bcl-xL seq uence of 35-50 aa, and ends with the Bcl-2 sequenc e of 92-202aa.], Bcl-xL (Human Bcl-xL protein, which has an internal deletion for the 45 -85 amino acid residues and a C -terminal truncation for the amino acid residues 212-233), and Bf l-1 (residues 1-151), were expres sed from the pHis -TEV vector (a modified pET vector) in E. coli BL21 (DE3) cells. Cells were grown at 37 °C in 2×YT containing antibiotics to an OD600 density of 1.5, 1 and 0.8 for Mcl-1, Bcl-xL and Bcl-2 respectively. Protein expression wa s induced by 0 .4 mM IPTG at 20 °C overnight for all proteins except for Bf l-1 which was e xpressed at 3 7 °C for four hours . Cells were lysed in 20 mM HEPES pH 7.5, 200 mM NaCl, 0.1% βME with Leupeptin/Aprotinin (Mcl-1), 25mM Tris pH 8.5, 200mM NaCl (Bcl-2), 50mM Tris pH 7.5, 200 mM NaCl (Bcl-xL) and 50 mM Tris pH 8, 500 mM NaCl, 0. 1% βME with Leupeptin/Aprotinin (Bf l-1). All

Bcl-xL = molecular target: T3, Bcl-xL (Homo sapiens, UniProt Q07817, DEL45-85); assay: FP-based competitive binding assay with FAM-Bid; details: for IC50 / Ki: FP
T3 construct: His tag (pHis-TEV vector) (N, cleaved yes); made in house; host or cells: E. coli BL21 (DE3)
T3 sequence (Q07817 with tags, fused parts or gaps DEL45-85 limits assumed): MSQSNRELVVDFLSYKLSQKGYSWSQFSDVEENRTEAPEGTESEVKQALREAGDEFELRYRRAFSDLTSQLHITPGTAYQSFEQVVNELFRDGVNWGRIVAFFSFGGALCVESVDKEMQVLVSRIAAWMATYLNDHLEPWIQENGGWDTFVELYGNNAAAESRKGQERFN
Experimental: as §1, §2, §3, §4, §5

Bfl-1 = molecular target: T4, Bfl-1 (Homo sapiens, UniProt Q16548); assay: FP-based competitive binding assay with FAM-Bid; details: for IC50: Bfl-1
T4 construct: Bf l-1 (residues 1-151); His tag (pHis-TEV vector) (N, cleaved yes); made in house; host or cells: E. coli BL21 (DE3)
T4 sequence (Q16548 1-151): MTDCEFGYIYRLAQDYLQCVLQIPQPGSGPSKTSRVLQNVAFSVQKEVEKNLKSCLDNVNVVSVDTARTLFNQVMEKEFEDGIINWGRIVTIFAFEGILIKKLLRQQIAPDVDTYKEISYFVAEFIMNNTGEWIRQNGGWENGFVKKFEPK
Experimental: as §1, §2, §3, §4, §5

T1 sequence (Q07820 171-323): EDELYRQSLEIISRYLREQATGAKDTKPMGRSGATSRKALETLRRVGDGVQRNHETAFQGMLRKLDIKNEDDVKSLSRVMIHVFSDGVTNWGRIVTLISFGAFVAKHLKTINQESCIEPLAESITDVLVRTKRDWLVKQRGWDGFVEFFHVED

| Compound | IC50 (Mcl-1 protein) [µM] | IC50 (Bcl-2) [µM] | Ki (Bcl-2) [µM] | IC50 (Bcl-xL) [µM] | Ki (Bcl-xL) [µM] | IC50 (Bfl-1) [µM] | Ki (Bfl-1; FP) [µM] | fold lower binding affinity to Bcl-xL than to Mcl-1 (Bcl-xL; ratio of Ki) [fold] | fold lower binding affinity to Bfl-1 than to Mcl-1 (Bfl-1; ratio of Ki) [fold] | binding to Bfl-1 compared with Mcl-1 (Bfl-1; FP) |
| --- | --- | --- | --- | --- | --- | --- | --- | --- | --- | --- |
| c1ccc(CCCCSc2nnc(-c3ccco3)c(-c3ccco3)n2)cc1 [Compound 44] | 2.5 ± 0.1 | > 100 | > 25 | > 100 | > 20 | 5.1 ± 0.1 | 0.7 ± 0.1 | – | – | – |
| O=C(CSc1nnc(-c2ccco2)c(-c2ccco2)n1)Nc1cccc(C(F)(F)F)c1 [Compound 39] | 7.1 ± 2.8 | > 100 | > 25 | > 100 | > 20 | 75.9 ± 6.2 | 10.4 | > 17 | 8 | – |
| O=C(CSc1nnc(-c2ccco2)c(-c2ccco2)n1)Nc1ccccc1 [Compound 19] | 11.9 ± 3.7 | > 100 | > 25 | > 100 | > 20 | 35.6 ± 8.6 | 4.9 | – | – | lower binding to Bfl-1 in comparison to Mcl-1 |

— PMC6033896, “Discovery of Mcl-1 inhibitors from integrated high throughput and virtual screening” (Scientific Reports, 2018)
